Results taken from patent publication US20240109853A1 (Shanghai Yao Yuan Biotechnology Co., Ltd., priority 2020, published 2024).
Read-outs that look alike come from different tables or passages of the source.

Experiments:
[1] = target: ALPK1 (Homo sapiens (Human), UniProt Q96QP1); experiment: ALPK1 in vitro kinase assay (HTRF of TIFA phosphorylation); type: biochemical
[2] = test system: ALPK1-dependent NFκB reporter gene activation in HEK293 cells stably expressing an NF-kB reporter (G9 cells); experiment: NFκB gene reporter alkaline phosphatase assay; type: cell-based; details: Homo sapiens, HEK293; read-out: NFkB assay IC50
Summary of the method: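 Inhibition of ALPK1-driven NF-κB activation: compounds added to reporter-bearing HEK293 (G9) cells 30 min before the agonist D-glycero-D-manno-6-fluoro-heptose-1β-S-ADP. Secreted phosphatase detected by pNPP colorimetry, with IC50 derived by logistic curve fitting.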

Chain of ALPK1 (Q96QP1 whole entry): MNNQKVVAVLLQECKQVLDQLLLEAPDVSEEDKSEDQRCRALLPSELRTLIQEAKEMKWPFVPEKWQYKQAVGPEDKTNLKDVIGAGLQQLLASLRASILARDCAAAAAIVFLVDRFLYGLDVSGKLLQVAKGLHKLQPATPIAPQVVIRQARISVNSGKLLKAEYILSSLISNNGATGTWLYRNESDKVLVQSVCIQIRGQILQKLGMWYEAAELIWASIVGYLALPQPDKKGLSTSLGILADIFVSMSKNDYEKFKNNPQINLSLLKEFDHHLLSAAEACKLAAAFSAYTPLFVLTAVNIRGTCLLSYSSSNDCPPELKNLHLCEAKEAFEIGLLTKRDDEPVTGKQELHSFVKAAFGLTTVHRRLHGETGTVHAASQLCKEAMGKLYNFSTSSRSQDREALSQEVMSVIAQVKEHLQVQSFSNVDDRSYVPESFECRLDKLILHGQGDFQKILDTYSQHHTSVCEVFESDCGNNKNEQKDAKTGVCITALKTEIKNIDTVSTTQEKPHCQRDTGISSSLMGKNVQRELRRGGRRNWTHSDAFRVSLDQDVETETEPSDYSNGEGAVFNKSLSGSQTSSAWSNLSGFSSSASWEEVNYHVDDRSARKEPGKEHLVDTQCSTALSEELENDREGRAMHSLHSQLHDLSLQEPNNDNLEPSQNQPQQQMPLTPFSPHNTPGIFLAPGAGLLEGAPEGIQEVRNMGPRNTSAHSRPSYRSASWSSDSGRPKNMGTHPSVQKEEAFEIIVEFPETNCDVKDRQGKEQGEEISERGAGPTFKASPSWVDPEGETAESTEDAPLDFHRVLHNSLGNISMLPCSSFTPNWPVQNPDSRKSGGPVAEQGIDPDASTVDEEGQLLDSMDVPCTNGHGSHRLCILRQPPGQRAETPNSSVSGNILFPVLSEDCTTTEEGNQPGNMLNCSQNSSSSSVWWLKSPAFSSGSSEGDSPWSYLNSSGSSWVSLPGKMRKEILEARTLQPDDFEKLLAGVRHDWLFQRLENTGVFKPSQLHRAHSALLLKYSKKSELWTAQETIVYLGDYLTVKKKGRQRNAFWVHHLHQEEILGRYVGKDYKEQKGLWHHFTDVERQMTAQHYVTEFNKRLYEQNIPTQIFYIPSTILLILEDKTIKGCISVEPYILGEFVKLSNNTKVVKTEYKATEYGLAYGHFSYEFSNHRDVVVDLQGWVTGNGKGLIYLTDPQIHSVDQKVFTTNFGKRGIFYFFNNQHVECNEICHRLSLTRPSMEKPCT

SMILES | IC50 [1] | IC50 [2] | IC50 ([1]; ALPK1 2 nM, TIFA substrate, ADP-Heptose activator, HTRF readout)
CN1CCN(Cc2c(F)cc(CNC(=O)Nc3nc(C(C)(C)c4ccc(Br)cc4)cs3)cc2F)CC1 [Example A117, 1-(4-(2-(4-bromophenyl)propan-2-yl)thiazol-2-yl)-3-(3,5-difluoro-4-((4-methylpiperazin-1-yl)methyl)benzyl)urea] | 67 nM | 5030 nM | 
COc1ccc(C(C)(C)c2csc(NC(=O)NCc3cc(F)c(N4CCNCC4)c(F)c3)n2)cc1 [Example A040, 1-(3,5-difluoro-4-(piperazin-1-yl)benzyl)-3-(4-(2-(4-methoxyphenyl)propan-2-yl)thiazol-2-yl)urea] | 45 nM | 500 nM | 
CC1CN(c2ccc(CNC(=O)Nc3nc(C(C)(C)c4ccc(Br)cc4)cs3)cc2)CC(C)N1 (centres unmarked) [Example A213, 1-(4-(2-(4-bromophenyl)propan-2-yl)thiazol-2-yl)-3-(4-(3,5-dimethylpiperazin-1-yl)benzyl)urea] | 9 nM | 6380 nM | 
NC1CCN(c2ccc(CNC(=O)Nc3nc(C4(c5ccc(Br)cc5)CCCC4)cs3)cc2)CC1 [Example A191, 1-(4-(4-aminopiperidin-1-yl)benzyl)-3-(4-(1-(4-bromophenyl)cyclopent-yl)thiazol-2-yl)urea] | 80 nM | 6910 nM | 
CC(C)(c1ccc(Br)cc1)c1csc(NC(=O)NCc2ccc(N3CCNCC3)cc2)n1 [Example A027, 1-(4-(2-(4-bromophenyl)propan--2 yl)thiazol-2-yl)-3-(4-(piperazin-1-yl)benzyl)urea] | 46 nM | 1450 nM | ~50 nM
CCC(C)(c1ccc(OC)cc1)c1csc(NC(=O)NC(C)c2ccc(N3CCNCC3)cc2)n1 (centres unmarked) [Example A076, 1-(4-(2-(4-methoxyphenyl)butan-2-yl)thiazol-2-yl)-3-(1-(4-(piperazin-1-yl)phenyl)ethyl)urea] | 147 nM | 4480 nM | 
C#CC(C)(c1ccc(Cl)cc1)c1csc(NC(=O)NCCO)n1 (centres unmarked) [Example A174, 1-(4-(2-(4-chlorophenyl)but-3-yn-2-yl)thiazol-2-yl)-3-(2-hydroxyethyl)urea] | 34 nM | 310 nM | 
CC(C)(c1ccc(Br)cc1)c1csc(NC(=O)NCc2cnc(NCCN)nc2)n1 [Example A081, 1-((2-((2-aminoethyl)amino)pyri-midin-5-yl)methyl)-3-(4-(2-(4-bromophenyl)propan-2-yl)thiazol-2-yl)urea] | 17 nM | 1840 nM | 
COc1ccc(C(C)(C)c2csc(NC(=O)NCc3ccc(N4CCNCC4)c(F)c3)n2)cc1 [Example A054, 1-(3-fluoro-4-(piperazin-1-yl)benzyl)-3-(4-(2-(4-methoxyphenyl)propan-2-yl)thiazol-2-yl)urea] | 30 nM | 880 nM | 
COc1ccc(C(C)(C)c2csc(NC(=O)NCc3ccc(CN4CCNCC4)c(F)c3)n2)cc1 [Example A037, 1-(3-fluoro-4-(piperazin-1-ylmethyl)benzyl)-3-(4-(2-(4-methoxyphenyl)propan-2-yl)thiazol-2-yl)urea] | 57 nM | 2510 nM | 
C#C[C@@](C)(c1ccc(OC)cc1)c1csc(NC(=O)NCCO)n1 [Example A170, (S)-1-(2-hydroxyethyl)-3-(4-(2-(4-methoxyphenyl)but-3-yn-2-yl)thiazol-2-yl)urea] | 8 nM | 460 nM | 
CC(C)(c1ccc(Br)cc1)c1csc(NC(=O)NCCCS(N)(=O)=O)n1 [Example A132, 3-(3-(4-(2-(4-bromophenyl)propan-2-yl)thiazol-2-yl)ureido)propane-1-sulfonamide] | 80 nM | 4560 nM | 
CC(C)(c1ccc(Cl)cc1)c1csc(NC(=O)NCc2ccc(N3CCNCC3)cc2)n1 [Example A046, 1-(4-(2-(4-chlorophenyl)propan-2-yl)thiazol-2-yl)-3-(4-(piperazin-1-yl)benzyl)urea] | 79 nM | 1060 nM | 
COc1ccc(C(C)(C)c2csc(NC(=O)NCCCS(=O)(=O)N3CCC(N)C3)n2)cc1 (centres unmarked) [Example A229, 1-(3-((3-aminopyrrolidin-1-yl)sulfonyl)propyl)-3-(4-(2-(4-methoxyphenyl)propan-2-yl)thiazol-2-yl)urea] | 169 nM | 2270 nM | 
